Measured values published in US20090118274A1, “MONOCYCLIC AMINOPROPYL TETRAHYDRO-PYRAZOLO-PYRIDINE MODULATORS OF CATHEPSIN S” (priority 2007, published 2009).

Target: T1, Recombinant human cathepsin S (CatS) (Homo sapiens, UniProt P25774)
T1 construct: made in house
Assay: Recombinant human cathepsin S (CatS) fluorogenic substrate inhibition assay
Assay type: biochemical
Conditions: not given
Procedure: Recombinant human cathepsin S (CatS) was expressed in the baculovirus system and purified in one step with a thiopropyl-sepharose column. […] The assay is run in 150 mM sodium acetate pH 5.0 containing 1.5 mM DTT and 150 mM NaCl. […] Measurements are taken every min for 20 min. The rate is calculated from the slope of the increase in fluorescence and the percent inhibition is calculated from this.

T1 sequence (P25774 115-331): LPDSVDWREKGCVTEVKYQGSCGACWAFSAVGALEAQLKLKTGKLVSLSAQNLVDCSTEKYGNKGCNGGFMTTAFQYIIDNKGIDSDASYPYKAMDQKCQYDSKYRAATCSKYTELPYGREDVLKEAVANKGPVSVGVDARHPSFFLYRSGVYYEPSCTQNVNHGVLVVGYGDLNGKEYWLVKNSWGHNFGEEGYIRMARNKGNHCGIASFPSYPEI

Row | SMILES | IC50
1 | CS(=O)(=O)N1CCc2c(c(-c3ccc(C(F)(F)F)c(CNC(=O)c4cccc(C(=O)O)c4)c3)nn2CC(O)CN2CCCC2)C1 (stereo not drawn) [Example 191, N-{5-[1-(2-Hydroxy-3-pyrrolidin-1-yl-propyl)-5-methanesulfonyl-4,5,6,7-tetrahydro-1H-pyrazolo[4,3-c]pyridin-3-yl]-2-trifluoromethyl-benzyl]-isophthalamic acid] | 770 nM
2 | CS(=O)(=O)N1CCc2c(c(-c3ccc(C(F)(F)F)c(CNC(=O)Oc4ccc(F)cc4)c3)nn2CC(O)CN2CCCC2)C1 (stereo not drawn) [Example 213, {5-[1-(2-Hydroxy-3-pyrrolidin-1-yl-propyl)-5-methanesulfonyl-4,5,6,7-tetrahydro-1H-pyrazolo[4,3-c]pyridin-3-yl]-2-trifluoromethyl-benzyl}-carbamic acid 4-fluoro-phenyl ester] | 560 nM

Same assay, conditions: average of results obtained; substrate Z-Valine-Valine-Arginine-AMC 10 μM, pH 5.0; read-out: CatS IC50

Row | SMILES | IC50
3 | CS(=O)(=O)N1CCc2c(c(-c3ccc(C(F)(F)F)c(CNC(=O)C4CCCCCC4)c3)nn2CC(O)CN2CCCC2)C1 (stereo not drawn) [Example 160, Cycloheptanecarboxylic acid 5-[1-(2-hydroxy-3-pyrrolidin-1-yl-propyl)-5-methanesulfonyl-4,5,6,7-tetrahydro-1H-pyrazolo[4,3-c]pyridin-3-yl]-2-trifluoromethyl-benzylamide] | 320 nM
4 | CS(=O)(=O)N1CCc2c(c(-c3ccc(C(F)(F)F)c(CNC(=O)c4ccc(N)cc4)c3)nn2CC(O)CN2CCCC2)C1 (stereo not drawn) [Example 165, 4-Amino-N-{5-[1-(2-hydroxy-3-pyrrolidin-1-yl-propyl)-5-methanesulfonyl-4,5,6,7-tetrahydro-1H-pyrazolo[4,3-c]pyridin-3-yl]-2-trifluoromethyl-benzyl}-benzamide] | 440 nM
5 | CS(=O)(=O)N1CCc2c(c(-c3ccc(C(F)(F)F)c(CNC(=O)c4cccc(Cl)c4)c3)nn2CC(O)CN2CCCC2)C1 (stereo not drawn) [Example 166, 3-Chloro-N-{5-[1-(2-hydroxy-3-pyrrolidin-1-yl-propyl)-5-methanesulfonyl-4,5,6,7-tetrahydro-1H-pyrazolo[4,3-c]pyridin-3-yl]-2-trifluoromethyl-benzyl}-benzamide] | 460 nM
6 | CS(=O)(=O)N1CCc2c(c(-c3ccc(C(F)(F)F)c(CNC(=O)C4CCCCC4)c3)nn2CC(O)CN2CCCC2)C1 (stereo not drawn) [Example 168, Cyclohexanecarboxylic acid 5-[1-(2-hydroxy-3-pyrrolidin-1-yl-propyl)-5-methanesulfonyl-4,5,6,7-tetrahydro-1H-pyrazolo[4,3-c]pyridin-3-yl}-2-trifluoromethyl-benzylamide] | 500 nM
7 | CS(=O)(=O)N1CCc2c(c(-c3ccc(C(F)(F)F)c(CNC(=O)c4ccc(F)cc4)c3)nn2CC(O)CN2CCS(=O)(=O)CC2)C1 (stereo not drawn) [Example 169, N-(5-{1-[3-(1,1-Dioxo-1λ^6-thiomorpholin-4-yl)-2-hydroxy-propyl]-5-methanesulfonyl-4,5,6,7-tetrahydro-1H-pyrazolo[4,3-c]pyridin-3-yl}-2-trifluoromethyl-benzyl)-4-fluoro-benzamide] | 550 nM
8 | CS(=O)(=O)N1CCc2c(c(-c3ccc(Cl)c(CNC(=O)c4ccccc4)c3)nn2CC(O)CN2CCCCCC2)C1 (stereo not drawn) [Example 170, N-{5-[1-(3-Azepan-1-yl-2-hydroxy-propyl)-5-methanesulfonyl-4,5,6,7-tetrahydro-1H-pyrazolo[4,3-c]pyridin-3-yl]-2-chloro-benzyl}-benzamide] | 560 nM
9 | CS(=O)(=O)N1CCc2c(c(-c3ccc(C(F)(F)F)c(CNC(=O)c4ccc(F)cc4)c3)nn2CC(O)CN2CNC(=O)C2)C1 (stereo not drawn) [Example 171, 4-Fluoro-N-(5-{1-[2-hydroxy-3-(4-oxo-imidazolidin-1-yl)-propyl]-5-methanesulfonyl-4,5,6,7-tetrahydro-1H-pyrazolo[4,3-c]pyridin-3-yl}-2-trifluoromethyl-benzyl)-benzamide] | 600 nM
10 | COC1CCC(C(=O)NCc2cc(-c3nn(CC(O)CN4CCCC4)c4c3CN(S(C)(=O)=O)CC4)ccc2C(F)(F)F)CC1 (stereo not drawn) [Example 186, 4-Methoxy-cyclohexanecarboxylic acid 5-[1-(2-hydroxy-3-pyrrolidin-1-yl-propyl)-5-methanesulfonyl-4,5,6,7-tetrahydro-1H-pyrazolo[4,3-c]pyridin-3-yl]-2-trifluoromethyl-benzylamide] | 3100 nM
11 | CS(=O)(=O)N1CCc2c(c(-c3ccc(C(F)(F)F)c(C(=O)Nc4ccccc4)c3)nn2CC(O)CN2CCCC2)C1 (stereo not drawn) [Example 192, 5-[1-(2-Hydroxy-3-pyrrolidin-1-yl-propyl)-5-methanesulfonyl-4,5,6,7-tetrahydro-1H-pyrazolo[4,3-c]pyridin-3-yl]-N-phenyl-2-trifluoromethyl-benzamide] | 1600 nM
12 | CS(=O)(=O)N1CCc2c(c(-c3ccc(C(F)(F)F)c(CNS(=O)(=O)c4ccc(F)cc4)c3)nn2CC(O)CN2CCCC2)C1 (stereo not drawn) [Example 194, 4-Fluoro-N-{5-[1-(2-hydroxy-3-pyrrolidin-1-yl-propyl)-5-methanesulfonyl-4,5,6,7-tetrahydro-1H-pyrazolo[4,3-c]pyridin-3-yl]-2-trifluoromethyl-benzyl}-benzenesulfonamide] | 4900 nM
13 | CS(=O)(=O)NCc1cc(-c2nn(CC(O)CN3CCCC3)c3c2CN(S(C)(=O)=O)CC3)ccc1C(F)(F)F (stereo not drawn) [Example 195, N-{5-[1-(2-Hydroxy-3-pyrrolidin-1-yl-propyl)-5-methanesulfonyl-4,5,6,7-tetrahydro-1H-pyrazolo[4,3-c]pyridin-3-yl]-2-trifluoromethyl-benzyl}-methanesulfonamide] | 6500 nM
14 | CS(=O)(=O)N1CCc2c(c(-c3ccc(Cl)c(CNS(=O)(=O)c4ccc(Cl)c(Cl)c4)c3)nn2CCCN2CCCC2)C1 [Example 197, 3,4-Dichloro-N-{2-chloro-5-[5-methanesulfonyl-1-(3-pyrrolidin-1-yl-propyl)-4,5,6,7-tetrahydro-1H-pyrazolo[4,3-c]pyridin-3-yl]-benzyl}-benzenesulfonamide] | 5400 nM
15 | CS(=O)(=O)N1CCc2c(c(-c3ccc(C(F)(F)F)c(CNC(=O)c4ccc([N+](=O)[O-])cc4)c3)nn2CC(O)CN2CCCC2)C1 (stereo not drawn) [Example 212, N-{5-[1-(2-Hydroxy-3-pyrrolidin-1-yl-propyl)-5-methanesulfonyl-4,5,6,7-tetrahydro-1H-pyrazolo[4,3-c]pyridin-3-yl]-2-trifluoromethyl-benzyl}-4-nitro-benzamide] | 520 nM
16 | CS(=O)(=O)N1CCc2c(c(-c3ccc(C(F)(F)F)c(CNC(=O)c4cccc(F)c4)c3)nn2CC(O)CN2CCCC2)C1 (stereo not drawn) [Example 215, 3-Fluoro-N-{5-[1-(2-hydroxy-3-pyrrolidin-1-yl-propyl)-5-methanesulfonyl-4,5,6,7-tetrahydro-1H-pyrazolo[4,3-c]pyridin-3-yl]-2-trifluoromethyl-benzyl}-benzamide] | 580 nM
17 | CS(=O)(=O)N1CCc2c(c(-c3ccc(C(F)(F)F)c(CNC(=O)c4cc(Cl)cc(Cl)c4)c3)nn2CC(O)CN2CCCC2)C1 (stereo not drawn) [Example 218, 3,5-Dichloro-N-{5-[1-(2-hydroxy-3-pyrrolidin-1-yl-propyl)-5-methanesulfonyl-4,5,6,7-tetrahydro-1H-pyrazolo[4,3-c]pyridin-3-yl]-2-trifluoromethyl-benzyl}-benzamide] | 610 nM

The remaining lines, values ahead:

Row | IC50 | SMILES
18 | 370 nM | CS(=O)(=O)N1CCc2c(c(-c3ccc(C(F)(F)F)c(CNC(=O)c4ccccc4F)c3)nn2CC(O)CN2CCCC2)C1 (stereo not drawn) [Example 161, 2-Fluoro-N-{5-[1-(2-hydroxy-3-pyrrolidin-1-yl-propyl)-5-methanesulfonyl-4,5,6,7-tetrahydro-1H-pyrazolo[4,3-c]pyridin-3-yl]-2-trifluoromethyl-benzyl}-benzamide]
19 | 410 nM | CS(=O)(=O)N1CCc2c(c(-c3ccc(Cl)c(CNC(=O)c4cc5ccccc5s4)c3)nn2CCCN2CCCC2)C1 [Example 164, Benzo[b]thiophene-2-carboxylic acid 2-chloro-5-[5-methanesulfonyl-1-(3-pyrrolidin-1-yl-propyl)-4,5,6,7-tetrahydro-1H-pyrazolo[4,3-c]pyridin-3-yl]-benzylamide]
20 | 490 nM | CS(=O)(=O)N1CCc2c(c(-c3ccc(C(F)(F)F)c(CNC(=O)C4CCCCCC4)c3)nn2CC(O)CN2CCC3(CCNC3=O)CC2)C1 (stereo not drawn) [Example 167, Cycloheptanecarboxylic acid 5-{1-[2-hydroxy-3-(1-oxo-2,8-diaza-spiro[4.5]dec-8-yl)-propyl]-5-methanesulfonyl-4,5,6,7-tetrahydro-1H-pyrazolo[4,3-c]pyridin-3-yl}-2-trifluoromethyl-benzylamide]
21 | 13500 nM | Cc1nc2ccccc2c(=O)n1Cc1cc(-c2nn(CCCN3CCC4(CCNC4=O)CC3)c3c2CN(S(C)(=O)=O)CC3)ccc1C(F)(F)F [Example 174, 3-(5-{5-Methanesulfonyl-1-[3-(1-oxo-2,8-diaza-spiro[4.5]dec-8-yl)-propyl]-4,5,6,7-tetrahydro-1H-pyrazolo[4,3-c]pyridin-3-yl}-2-trifluoromethyl-benzyl)-2-methyl-3H-quinazolin-4-one]
22 | 5600 nM | CS(=O)(=O)N1CCc2c(c(-c3ccc(C(F)(F)F)c(C(=O)NCc4ccccc4)c3)nn2CC(O)CN2CCCC2)C1 (stereo not drawn) [Example 193, N-Benzyl-5-[1-(2-hydroxy-3-pyrrolidin-1-yl-propyl)-5-methanesulfonyl-4,5,6,7-tetrahydro-1H-pyrazolo[4,3-c]pyridin-3-yl]-2-trifluoromethyl-benzamide]
23 | 1630 nM | CS(=O)(=O)N1CCc2c(c(-c3ccc(C(F)(F)F)c(CNCc4ccccc4)c3)nn2CC(O)CN2CCCC2)C1 (stereo not drawn) [Example 205, 1-{3-[3-(Benzylamino-methyl)-4-trifluoromethyl-phenyl]-5-methanesulfonyl-4,5,6,7-tetrahydro-pyrazolo[4,3-c]pyridin-1-yl}-3-pyrrolidin-1-yl-propan-2-ol]
24 | 580 nM | Cc1ccc(C(=O)NCc2cc(-c3nn(CC(O)CN4CCCC4)c4c3CN(S(C)(=O)=O)CC4)ccc2C(F)(F)F)cc1 (stereo not drawn) [Example 214]
